The source of these data is PubChem BioAssay (NCI).

What all share (test): growth of human tumour cells (NCI), 48 h
For experiment [1], the system named is A549 NSCLC.
In experiment [2] the test system is HCT-15 colon.
Experiment [3] has as its system HT29 colon.
Experiment [4] has as its system KM12 colon.
Experiment [5] relates to MOLT-4 leukemia.
Experiment [6] deals with SK-MEL-2 melanoma.
Experiment [7] has as its system SK-OV-3 ovarian.
Experiment [8] concerns SN12C renal.
Experiment [9] concerns SW-620 colon.

The structures appear in SMILES notation.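 A five-concentration, 48-hour dose response in 96-well plates underlies each endpoint, interpolated linearly between surrounding concentrations. GI50 is the concentration that inhibits growth by half. At the TGI there is no net growth.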

Consider `CN(C)CCn1c2ccccc2c2nc3cc4ccccc4cc3nc21`, for which the TGI worked out at 16.9 µM in [1]; 18.7 µM in experiment [2]; 15 µM in [3]; 16.8 µM in experiment [4]; 4.1 µM in [5]; 24.8 µM in experiment [6]. Also, the TGI in experiment [7] stood at 23.4 µM; in experiment [8], 17.8 µM; in experiment [9], 17.4 µM.
For the compound `Cc1ccc(C)c(NC(=O)c2cc(-c3ccc([N+](=O)[O-])cc3)nc(N)n2)c1`, the TGI in experiment [1], in experiment [2], in [3], in [4], in [5] and in experiment [6] was above 100 µM throughout. Further, the TGI in experiment [7], in [8] and in [9] was above 100 µM throughout.
For the compound `O=c1cc(Cl)nc[nH]1`, the TGI in [1], in experiment [2], in [3], in experiment [4], in experiment [5] and in experiment [6] was above 100 µM in each case. Also, the TGI in experiment [7], in [8] and in experiment [9] was above 100 µM in each case.
Consider `O=c1ccccc2cccc(O)c12`, for which the TGI in experiment [1], in experiment [2], in [3], in [5], in [7] and in [8] was above 100 µM each time. Moreover, in experiment [9], the TGI is above 100 µM.
Take `Cc1c(C(=O)/C=C/c2ccc(Cl)cc2)[n+](=O)c2ccccc2n1[O-]`: the TGI in [1] is 33.6 µM; in experiment [2] it was 24.1 µM; in [3] it was 28.2 µM; in experiment [4] it was 22.7 µM; in experiment [5], 45.6 µM; in experiment [7], 47.6 µM. Further, the TGI in experiment [8] was found to be 23.3 µM; in experiment [9], 21.9 µM.
Consider `Cc1ccc(NC(=O)/C(CC(=O)c2c[n+](=O)c3ccccc3n2O)=N\NC(=O)C[n+]2ccccc2)cc1`, for which the TGI in [1], in experiment [2], in experiment [3], in experiment [4], in experiment [5] and in experiment [6] was above 100 µM each time. Also, the TGI in experiment [7], in [8] and in [9] was above 100 µM in each case.
On to `C(=C\c1csnn1)/c1cccnc1`, for which the TGI in experiment [1], in [2], in experiment [3], in [4], in [5] and in [6] was above 100 µM throughout. For the same compound, the TGI in experiment [7], in experiment [8] and in [9] was above 100 µM each time.
As for `CC(c1ccc(Br)cc1)C(C(=O)O)C(=O)O` (stereo not drawn), the TGI in experiment [1], in experiment [2], in experiment [3], in experiment [4], in [5] and in experiment [6] was above 100 µM in each case. The TGI in experiment [7], in experiment [8] and in [9] was above 100 µM each time.
With `CCOC(=O)/N=C(\N)SCc1ccccc1`, the TGI in experiment [1], in experiment [2], in experiment [3], in experiment [4], in experiment [5] and in experiment [6] was above 100 µM throughout. Further, the TGI in [7], in [8] and in experiment [9] was above 100 µM in each case.
On to `CC1=CC(C)(C)N=C2SC(c3ccc(Cl)cc3)=NN12`, for which the TGI in experiment [1] is above 100 µM; in experiment [2], above 100 µM; in experiment [3], 38.7 µM; in experiment [4], above 100 µM; in [5] it was 51 µM; in experiment [6], above 100 µM. Also, the TGI in experiment [7] and in [9] was above 100 µM each time.
Take `COc1ccc(C(c2ccc(C(C)C)cc(=O)c2O)c2c(O)cc3oc(-c4ccccc4)cc(=O)c3c2O)cc1` (stereo not drawn): the TGI in [1] was above 100 µM; in [2], 43.6 µM; in [3] it was 62.9 µM; in experiment [5], 48.4 µM; in experiment [7] it was 55.4 µM; in [8] it was 70.9 µM. For the same compound, the TGI in experiment [9] is above 100 µM.
Consider `Cc1cc(NS(=O)(=O)c2ccc(NC(=O)c3cccc4c(N)c5ccccc5nc34)cc2)no1`, for which the TGI in experiment [1] is above 100 µM; in [2] it was above 100 µM; in experiment [3], 80.8 µM; in [4], 58.3 µM; in experiment [5], above 100 µM; in experiment [6], 37.2 µM. In addition, the results for the TGI in experiment [7], in [8] and in [9] were 75.5 µM, 40.3 µM and 94.2 µM, respectively.
For `O=c1/c(=C/c2ccc(Cl)cc2Cl)sc2nc3ccccc3n12`, the TGI in experiment [1], in [2], in [3], in experiment [4], in experiment [5] and in [6] was above 100 µM throughout. The TGI in experiment [7], in experiment [8] and in [9] was above 100 µM each time.
On to `CCCCCCCCCCCC(=O)OCC1OC(n2cc(F)c(=O)[nH]c2=O)C(N)C(OC(=O)CCCCCCCCCCC)C1O` (stereo not drawn), for which the TGI in [1], in experiment [2], in experiment [3], in experiment [4], in [5] and in experiment [6] was above 100 µM in each case. Further, the TGI in experiment [7], in [8] and in [9] was above 100 µM in each case.
Turning to `N=C(N)SCCc1cn2ccccc2n1`, the TGI in [1], in experiment [2], in experiment [3], in experiment [4], in experiment [5] and in [6] was above 100 µM in each case. In addition, the TGI in experiment [8] and in experiment [9] was above 100 µM in each case.
On to `Nc1ccc(Nc2nc(F)nc(-c3c4ccccc4c4n3CCS4)n2)cc1`, for which the TGI amounted to 31.2 µM in experiment [1]; 25.5 µM in experiment [2]; 26.5 µM in experiment [4]; 50.9 µM in [5]; 29.3 µM in experiment [6]; 31.1 µM in [7]. Besides, the TGI in [8] turned out to be 33.4 µM; in experiment [9], 27.9 µM.
Turning to `CC(=O)OC12c3ccccc3C1CCCCCC21OCCCO1` (stereo not drawn), the TGI in [1], in experiment [2], in experiment [3], in experiment [4], in [5] and in experiment [6] was above 100 µM in each case. For the same compound, the TGI in [7] and in experiment [8] was above 100 µM in each case.
With `O=C(OCCOCBr)c1ccccc1`, the TGI in [1], in experiment [2], in experiment [3], in [4], in experiment [5] and in [6] was above 100 µM in each case. Besides, the TGI in experiment [7], in experiment [8] and in experiment [9] was above 100 µM in each case.
For the compound `O=C(CCC(=O)Nc1ccc(Cl)cc1)CC(=O)c1ccc(F)cc1`, the TGI in experiment [1], in experiment [2], in [3], in [4], in [5] and in experiment [6] was above 100 µM throughout. Further, the TGI in experiment [7], in experiment [8] and in experiment [9] was above 100 µM in each case.
`O=c1[nH]c(Br)nc2c(Br)c[nH]c12`: the TGI in [1], in [2], in experiment [3], in experiment [4], in experiment [5] and in [6] was above 100 µM throughout. For the same compound, the TGI in experiment [7], in experiment [8] and in [9] was above 100 µM each time.
In the case of `O=C(Nc1c(-c2nc3ccccc3[nH]2)sc(=S)n1-c1ccccc1)c1ccccc1`, the TGI in experiment [1], in [2], in [3], in experiment [4], in experiment [5] and in [6] was above 100 µM each time. Further, the TGI in experiment [7], in experiment [8] and in experiment [9] was above 100 µM each time.
In the case of `C=C1CC(CCCl)(c2ccccc2)OC1=O` (stereo not drawn), the TGI in experiment [1] was above 100 µM; in experiment [2], 39.2 µM; in [3], above 72.1 µM; in experiment [4], above 100 µM; in experiment [5], 49.9 µM; in experiment [6], above 100 µM. Also, the TGI in [7] is above 100 µM; in experiment [8], above 62.7 µM; in experiment [9], 39.5 µM.
`O=c1c2ccc3cccc4c(=O)cc(c5ccccc15)-c2c34`: the TGI in experiment [1], in experiment [2], in experiment [3], in experiment [4], in [5] and in experiment [6] was above 100 µM each time. For the same compound, the TGI in experiment [7], in experiment [8] and in experiment [9] was above 100 µM throughout.
As to `CCC[CH2][Sn]([CH2]CCC)([O]C(=O)c1cccc(F)c1)[O]C(=O)c1cccc(F)c1`, the GI50 in experiment [1] is 2.89 µM; in experiment [2], 1.16 µM; in experiment [3] it was 1.73 µM; in [4] it was 1.29 µM; in experiment [5], 0.363 µM; in experiment [6] it was 0.851 µM. Further, the GI50 in experiment [7] is 1.84 µM; in experiment [8] it was 1.29 µM. Also, the TGI was found to be 9.45 µM in [1]; 3.45 µM in experiment [2]; 3.38 µM in experiment [3]; 2.79 µM in experiment [4]; 2.41 µM in [5]; 2.1 µM in [6]. The TGI was found to be 3.45 µM in experiment [7] and 3.16 µM in experiment [8].
As to `CC(C)C(=O)N[C@@H](C)C(=O)N(Cc1ccc2ccccc2c1)N=O`, the TGI in experiment [1], in experiment [2], in [3], in experiment [5], in experiment [6] and in experiment [7] was above 100 µM each time. Moreover, the TGI in experiment [8] and in [9] was above 100 µM in each case.
Regarding `O=C(O)/C(=C/c1ccccc1[N+](=O)[O-])c1ccccc1`, the TGI in experiment [1], in experiment [2], in experiment [3], in experiment [4], in [5] and in experiment [6] was above 100 µM throughout. The TGI in experiment [7], in experiment [8] and in [9] was above 100 µM throughout.
For the compound `N=C(c1ccccc1)N(O)C1CCCCC1`, the TGI in experiment [1], in experiment [3], in experiment [4], in experiment [6], in experiment [8] and in experiment [9] was above 100 µM throughout.
In the case of `CC(=O)OC1CCn2nnc(COC(=O)NC(C)C)c21` (stereo not drawn), the TGI in experiment [1], in experiment [2], in experiment [3], in experiment [4], in experiment [5] and in [6] was above 100 µM in each case. The TGI in experiment [7], in [8] and in experiment [9] was above 100 µM each time.
Regarding `Cn1c(CCC#N)nc2ccc(Br)cc2c1=O`, the TGI in experiment [1], in experiment [2], in experiment [3], in [4], in experiment [5] and in experiment [6] was above 100 µM throughout. Moreover, the TGI in [7], in experiment [8] and in experiment [9] was above 100 µM throughout.
Take `CCCNCc1nc2ccc(Br)cc2c(=O)n1CCC`: the TGI in experiment [1] was 35 µM; in [2], 27.4 µM; in experiment [3], 29.9 µM; in [4], 29.3 µM; in experiment [5] it was above 100 µM; in [6] it was 25.2 µM. The TGI in experiment [7] came to 32.6 µM; in experiment [8], 26.7 µM; in [9], 28.3 µM.
Turning to `Cc1ccccc1C(=O)Oc1ccc(Oc2ccccc2)cc1`, the TGI in experiment [1], in experiment [2], in experiment [3], in experiment [4], in [5] and in experiment [6] was above 100 µM throughout. The TGI in experiment [7], in [8] and in experiment [9] was above 100 µM throughout.
